Values after ≈ are worked out from the molar mass of the structure shown.
Assays:
[1] = system: N. gonorrhoeae WHO Q; assay: Liquid broth MIC in Fastidious broth; type: cell-based; details: Neisseria gonorrhoeae, read-out: Minimum Inhibitory Concentration, N. gonorrhoeae WHO Q
Outline: (§1)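 Broth microdilution against gonococcal strains expressing mosaic PBP2, starting inoculum 5×10^5 CFU/mL in Fastidious broth. Incubation runs ~24 h at 36 °C under 5% CO2, with MIC scored visually at <10% of full growth.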

[2] = system: N. gonorrhoeae WHO K; assay: Liquid broth MIC in Fastidious broth; type: cell-based; details: Neisseria gonorrhoeae, read-out: Minimum Inhibitory Concentration, N. gonorrhoeae WHO K
Outline: as §1

[3] = system: N. gonorrhoeae FA1090; assay: Liquid broth MIC in Fastidious broth; type: cell-based; details: Neisseria gonorrhoeae; N. gonorrhoeae strain FA1090; Fastidious broth; read-out: Minimum Inhibitory Concentration, N. gonorrhoeae FA1090
Outline: (§2)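 Colonies were swabbed from chocolate agar after 24 h growth and standardised by optical density at 600 nm. Compounds were serially diluted twofold in Fastidious broth, and bacteria added to give 5×10^5 CFU/mL. After about 24 h at 36 °C in 5% CO2, the lowest concentration allowing under 10% growth was taken as MIC.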

[4] = system: N. gonorrhoeae H041; assay: Liquid broth MIC in Fastidious broth; type: cell-based; details: Neisseria gonorrhoeae, H041, read-out: Minimum Inhibitory Concentration, N. gonorrhoeae H041
Outline: as §1

[5] = system: N. gonorrhoeae ATCC 49226; assay: Liquid broth MIC in Fastidious broth; type: cell-based; details: Neisseria gonorrhoeae, ATCC49226; N. gonorrhoeae strain ATCC 49226; Fastidious broth; read-out: Minimum Inhibitory Concentration, N. gonorrhoeae ATCC 49226
Outline: as §2

[6] = system: N. gonorrhoeae WHO G; assay: Liquid broth MIC in Fastidious broth; type: cell-based; details: Neisseria gonorrhoeae; N. gonorrhoeae strain WHO G; Fastidious broth; read-out: Minimum Inhibitory Concentration, N. gonorrhoeae WHO G
Outline: as §2

[7] = system: N. gonorrhoeae WHO L; assay: Liquid broth MIC in Fastidious broth; type: cell-based; details: Neisseria gonorrhoeae; N. gonorrhoeae strain WHO L; Fastidious broth; read-out: Minimum Inhibitory Concentration, N. gonorrhoeae WHO L
Outline: as §2

[8] = system: N. gonorrhoeae WHO Z; assay: Liquid broth MIC in Fastidious broth; type: cell-based; details: Neisseria gonorrhoeae, read-out: Minimum Inhibitory Concentration, N. gonorrhoeae WHO Z
Outline: as §1

[9] = target: T1, E. coli K12 PBP3 (Escherichia coli, UniProt P0AD68); assay: biochemical; type: binding
T1 construct: made in house
T1 sequence (P0AD68 1-577): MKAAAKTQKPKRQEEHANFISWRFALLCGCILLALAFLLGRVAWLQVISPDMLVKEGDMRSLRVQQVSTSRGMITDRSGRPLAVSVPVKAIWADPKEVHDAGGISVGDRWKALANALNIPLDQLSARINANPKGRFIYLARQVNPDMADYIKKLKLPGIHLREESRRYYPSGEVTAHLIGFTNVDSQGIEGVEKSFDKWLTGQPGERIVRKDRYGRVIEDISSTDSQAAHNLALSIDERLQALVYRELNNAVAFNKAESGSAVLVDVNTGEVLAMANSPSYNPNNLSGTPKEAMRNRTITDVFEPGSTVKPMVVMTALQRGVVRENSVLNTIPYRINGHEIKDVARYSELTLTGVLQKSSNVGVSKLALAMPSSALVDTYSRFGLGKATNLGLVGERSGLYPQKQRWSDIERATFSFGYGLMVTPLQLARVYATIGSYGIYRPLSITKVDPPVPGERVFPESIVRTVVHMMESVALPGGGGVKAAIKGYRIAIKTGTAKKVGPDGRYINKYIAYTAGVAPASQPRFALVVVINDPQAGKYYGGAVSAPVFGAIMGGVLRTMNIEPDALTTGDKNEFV
Outline: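 Fluorescence polarization (ex 490/em 520 nm) competition of inhibitors against Bocillin-FL at 0.1 μM, read up to 60 min. Final PBP levels: E. coli PBP3 1.5 μM; A. baumannii PBP2 2.5 μM, PBP3 0.2 μM in Tris pH 8.0/NaCl/glycerol/Tween 20; N. gonorrhoeae PBP2 […] in Hepes pH 8.0/NaCl/glycerol. EC50 = concentration halving PBP-bound Bocillin-FL.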

SMILES	MIC [1] [µg/mL]	MIC [2] [µg/mL]	MIC [3] [µg/mL]	MIC [4] [µg/mL]	MIC [5] [µg/mL]	MIC [6] [µg/mL]	MIC [7] [µg/mL]	MIC [8] [µg/mL]	EC50 [9] [µM]
CS(=O)(=O)N1CCN(C(=O)N[C@@H](C(=O)N[C@H]2Cc3cccc(C(=O)O)c3OB2O)c2c(F)cc(O)cc2F)C1=O (single isomer, unassigned) [Example 135]	16 to 32 (≈ 27.5 to 55 µM)	> 64	< 0.125	> 64	4 to 8 (≈ 6.87 to 13.7 µM)	1 to 2 (≈ 1.72 to 3.43 µM)	16 to 32 (≈ 27.5 to 55 µM)	16 to 32 (≈ 27.5 to 55 µM)	< 30
CS(=O)(=O)N1CCN(C(=O)N[C@H](C(=O)N[C@H]2Cc3cccc(C(=O)O)c3OB2O)c2c(F)cc(O)cc2F)C1=O (single isomer, unassigned) [Example 136]	> 64	> 64	1 to 2 (≈ 1.72 to 3.43 µM)	> 64	> 64	16 to 32 (≈ 27.5 to 55 µM)	> 64	> 64	30 to 500
CCN1CCN(C(=O)N[C@H](C(=O)N[C@H]2Cc3cccc(C(=O)O)c3OB2O)c2ccc(C(=O)O)c(F)c2F)C(=O)C1=O (single isomer, unassigned) [Example 139]	4 to 8 (≈ 6.8 to 13.6 µM)	4 to 8 (≈ 6.8 to 13.6 µM)	< 0.125	4 to 8 (≈ 6.8 to 13.6 µM)	1 to 2 (≈ 1.7 to 3.4 µM)	1 to 2 (≈ 1.7 to 3.4 µM)	4 to 8 (≈ 6.8 to 13.6 µM)	1 to 2 (≈ 1.7 to 3.4 µM)	< 30
CCN1CCN(C(=O)N[C@@H](C(=O)N[C@H]2Cc3cccc(C(=O)O)c3OB2O)c2ccc(C(=O)O)c(F)c2F)C(=O)C1=O (single isomer, unassigned) [Example 140]	1 to 2 (≈ 1.7 to 3.4 µM)	1 to 2 (≈ 1.7 to 3.4 µM)	< 0.125	1 to 2 (≈ 1.7 to 3.4 µM)	0.25 to 0.5 (≈ 0.425 to 0.85 µM)	0.25 to 0.5 (≈ 0.425 to 0.85 µM)	1 to 2 (≈ 1.7 to 3.4 µM)	0.25 to 0.5 (≈ 0.425 to 0.85 µM)	< 30
CCN1CCN(C(=O)N[C@H](C(=O)N[C@H]2Cc3cccc(C(=O)O)c3OB2O)c2ccc(C(=O)O)cc2O)C(=O)C1=O (single isomer, unassigned) [Example 143]	> 64	> 64	1 to 2 (≈ 1.76 to 3.52 µM)	> 64	16 to 32 (≈ 28.2 to 56.3 µM)	4 to 8 (≈ 7.04 to 14.1 µM)	> 64	16 to 32 (≈ 28.2 to 56.3 µM)	< 30
CCN1CCN(C(=O)N[C@@H](C(=O)N[C@H]2Cc3cccc(C(=O)O)c3OB2O)c2ccc(C(=O)O)cc2O)C(=O)C1=O (single isomer, unassigned) [Example 144]	4 to 8 (≈ 7.04 to 14.1 µM)	16 to 32 (≈ 28.2 to 56.3 µM)	< 0.125	16 to 32 (≈ 28.2 to 56.3 µM)	1 to 2 (≈ 1.76 to 3.52 µM)	0.25 to 0.5 (≈ 0.44 to 0.88 µM)	4 to 8 (≈ 7.04 to 14.1 µM)	4 to 8 (≈ 7.04 to 14.1 µM)	< 30
CCN1CCN(C(=O)N[C@@H](C(=O)N[C@H]2Cc3cccc(C(=O)O)c3OB2O)c2ccc(C(=O)O)c(F)c2)C(=O)C1=O (single isomer, unassigned) [Example 146]	1 to 2 (≈ 1.75 to 3.51 µM)	1 to 2 (≈ 1.75 to 3.51 µM)	< 0.125	4 to 8 (≈ 7.01 to 14 µM)	1 to 2 (≈ 1.75 to 3.51 µM)	0.25 to 0.5 (≈ 0.438 to 0.877 µM)	4 to 8 (≈ 7.01 to 14 µM)	1 to 2 (≈ 1.75 to 3.51 µM)	< 30
CCN1CCN(C(=O)N[C@H](C(=O)N[C@H]2Cc3cccc(C(=O)O)c3OB2O)c2ccc(C(=O)O)c(F)c2)C(=O)C1=O (single isomer, unassigned) [Example 147]	0.25 to 0.5 (≈ 0.438 to 0.877 µM)	0.25 to 0.5 (≈ 0.438 to 0.877 µM)	< 0.125	1 to 2 (≈ 1.75 to 3.51 µM)	1 to 2 (≈ 1.75 to 3.51 µM)	0.25 to 0.5 (≈ 0.438 to 0.877 µM)	4 to 8 (≈ 7.01 to 14 µM)	0.25 to 0.5 (≈ 0.438 to 0.877 µM)	< 30
CCN1CCN(C(=O)N[C@@H](C(=O)N[C@H]2Cc3cccc(C(=O)O)c3OB2O)c2cc(F)c(C(=O)O)cc2Cl)C(=O)C1=O (single isomer, unassigned) [Example 148]	4 to 8 (≈ 6.61 to 13.2 µM)	4 to 8 (≈ 6.61 to 13.2 µM)	0.25 to 0.5 (≈ 0.413 to 0.827 µM)	16 to 32 (≈ 26.5 to 52.9 µM)	4 to 8 (≈ 6.61 to 13.2 µM)	1 to 2 (≈ 1.65 to 3.31 µM)	> 64	4 to 8 (≈ 6.61 to 13.2 µM)	< 30
CCN1CCN(C(=O)N[C@H](C(=O)N[C@H]2Cc3cccc(C(=O)O)c3OB2O)c2cc(F)c(C(=O)O)cc2Cl)C(=O)C1=O (single isomer, unassigned) [Example 149]	> 64	> 64	4 to 8 (≈ 6.61 to 13.2 µM)	> 64	> 64	16 to 32 (≈ 26.5 to 52.9 µM)	> 64	16 to 32 (≈ 26.5 to 52.9 µM)	30 to 500
CCN1CCN(C(=O)N[C@@H](C(=O)N[C@H]2Cc3cccc(C(=O)O)c3OB2O)c2ccc(C(=O)O)cc2Cl)C(=O)C1=O (single isomer, unassigned) [Example 151]	4 to 8 (≈ 6.82 to 13.6 µM)	4 to 8 (≈ 6.82 to 13.6 µM)	0.25 to 0.5 (≈ 0.426 to 0.852 µM)	4 to 8 (≈ 6.82 to 13.6 µM)	4 to 8 (≈ 6.82 to 13.6 µM)	1 to 2 (≈ 1.7 to 3.41 µM)	16 to 32 (≈ 27.3 to 54.5 µM)	1 to 2 (≈ 1.7 to 3.41 µM)	< 30
CCN1CCN(C(=O)N[C@H](C(=O)N[C@H]2Cc3cccc(C(=O)O)c3OB2O)c2ccc(C(=O)O)cc2Cl)C(=O)C1=O (single isomer, unassigned) [Example 152]	16 to 32 (≈ 27.3 to 54.5 µM)	16 to 32 (≈ 27.3 to 54.5 µM)	1 to 2 (≈ 1.7 to 3.41 µM)	16 to 32 (≈ 27.3 to 54.5 µM)	16 to 32 (≈ 27.3 to 54.5 µM)	4 to 8 (≈ 6.82 to 13.6 µM)	> 64	4 to 8 (≈ 6.82 to 13.6 µM)	30 to 500
CCN1CCN(C(=O)N[C@@H](C(=O)N[C@H]2Cc3cccc(C(=O)O)c3OB2O)c2ccc(C(=O)O)c(Cl)c2)C(=O)C1=O (single isomer, unassigned) [Example 154]	1 to 2 (≈ 1.7 to 3.41 µM)	1 to 2 (≈ 1.7 to 3.41 µM)	< 0.125	1 to 2 (≈ 1.7 to 3.41 µM)	1 to 2 (≈ 1.7 to 3.41 µM)	0.25 to 0.5 (≈ 0.426 to 0.852 µM)	4 to 8 (≈ 6.82 to 13.6 µM)	0.25 to 0.5 (≈ 0.426 to 0.852 µM)	< 30
CCN1CCN(C(=O)N[C@H](C(=O)N[C@H]2Cc3cccc(C(=O)O)c3OB2O)c2ccc(C(=O)O)c(Cl)c2)C(=O)C1=O (single isomer, unassigned) [Example 155]	1 to 2 (≈ 1.7 to 3.41 µM)	1 to 2 (≈ 1.7 to 3.41 µM)	< 0.125	4 to 8 (≈ 6.82 to 13.6 µM)	1 to 2 (≈ 1.7 to 3.41 µM)	0.25 to 0.5 (≈ 0.426 to 0.852 µM)	16 to 32 (≈ 27.3 to 54.5 µM)	1 to 2 (≈ 1.7 to 3.41 µM)	< 30

Reference: patent US20230114728A1 (Venatorx Pharmaceuticals, Inc., priority 2019, published 2023)
